Experimental data published in US10111431B2, “Application of biofilm formation inhibiting compounds enhances control of citrus canker” (priority 2013, dated 2018).

Assays:
Format in all cases: cell-based, Xanthomonas citri subsp. citri
[1] = tested on: Xac strain 306 biofilm formation; assay: Biofilm formation on citrus abaxial leaf surfaces; details: 10 mM D-leucine, 100 μg/mL IAN; 28° C., 24 h, crystal violet
Experimental: To gain further evidence of the effect of selected compounds on biofilm formation, biofilm formation in glass tubes and on leaf surfaces was examined as described previously (Li and Wang, 2012). Briefly, the standardized overnight culture of Xac 306 (OD600=1.0) were diluted 1:10 in fresh NB containing 1.0% glucose and the selected compound. For biofilm formation assay in glass tubes (Fischer Scientific, Pittsburgh, Pa.), 1 ml of the diluted bacterial suspension was transferred into each sterilized borosilicate glass tube and incubated at 28° C. without shaking for 48 h. The planktonic growth was then discarded and the tubes were gently washed three times with SDW. The biofilm formed on the tubes was visualized by staining with 0.1% CV. The stain remaining in cells on glass tubes was dissolved in 95% ethanol and quantified by measuring the optical density at 590 nm. For biofilm formation assay on leaf surfaces, 20 μl of the diluted bacterial suspension was dropped onto the abaxial surface of citrus leaves. The leaves were kept in a humidified chamber at 28° C. for 24 h without shaking. The biofilm formed on the leaf surfaces was visualized by staining with 0.1% CV. The biofilm assays were repeated three times with four replicates each time.

Xac306 biofilm formation [2] = assay: Static biofilm formation assay in 96-well polystyrene plates with crystal violet staining; details: for dose dependence of Xac306 biofilm decrease: 0 to 20 mM for D-leucine and D-serine, 0 to 150 μg/mL for IAN; for decrease in biofilm mass: 10 mM for D-leucine and 100 μg/mL for IAN (below MIC); for effect on planktonic cell density: sub-MIC: 10 mM D-leucine, 100 μg/mL IAN, data not shown
Experimental: A static biofilm formation assay in 96-well polystyrene plates coupled with CV staining was performed as previously reported with modifications (Li and Wang, 2011). Briefly, a 96-well polystyrene plate (Nunclon surface, Nuncbrand, Denmark) was prepared with 170 μL NB plus 1.0% glucose per well. Aliquots of 20 μL each of the different concentrations of the tested compound were pipetted into eight wells containing 170 μL of NB plus 1.0% glucose. To each of these wells was added 10 μL of the standardized overnight Xac 306 culture (OD600=1.0). Control wells contained NB plus 1.0% glucose and SDW or 0.1% DMSO as a sterility control, or standardized overnight Xac 306 culture as a growth control. The plate was covered by a MicroWell lid (Nunclon), sealed with parafilm to prevent evaporation and incubated at 28° C. for 48 h without shaking. After incubation, the planktonic growth was measured at OD600. To quantify the amount of biofilms formed on the surfaces of the wells, the culture was removed from the wells. After drying, the wells were washed twice with 200 μl of SDW for 5 min, allowed to dry then 200 μl of 0.1% CV added. After 30 minutes, the CV was removed. The wells were washed with excess SDW to remove unbound CV and air dried in an inverted position for 2 h. Afterward, 200 μl of 95% ethanol was added to the wells and incubated for 30 min at room temperature to elute bound CV. The eluted CV was 2-fold diluted in double distilled water and the absorbance at 590 nm was measured. Each data point was averaged from eight replicate wells.

Xac 306 biofilm cells = assay: Resistance of Xac biofilm cells to copper, cell viability assay in glass tubes; details: for susceptibility of biofilms to CuSO4 relative to untreated control: 10 mM D-leucine, 100 μg/mL IAN; for cell viability of Xac biofilms exposed to CuSO4: CuSO4 1.0 mM plus biofilm inhibitor; for viable cells in biofilms: CuSO4 (1.0 mM) plus D-leucine 10.0 mM and/or IAN 100 μg/ml, 24 h
Experimental: The level of copper resistance of biofilms was evaluated using a cell viability assays. Briefly, Xac biofilms were prepared using NB with stationary incubation in glass tubes as described above. After 48 h-incubation, the cultures were removed and bacterial cells attached to the tubes were gently washed three times with SDW. One milliliter of fresh NB with CuSO4 (1.0 mM), D-leucine (10 mM) or IAN (100 μg/mL), or a combination of these compounds was added to each tube. NB alone was used as control. Tubes were kept at room temperature for 24 h and shaken vigorously for 5 min. The suspensions were diluted in 10-fold series, and 10 μL of each dilution spotted in triplicate on NA plate. Plates were incubated at 28° C. for 48 to 72 h prior to assessing bacterial growth. Colonies that grew near the dilution end-point were counted and bacterial populations in the initial suspensions prior to dilution were calculated. Each treatment compromises four replicates and the experiment repeated three times.

Xac306 biofilm formation [3] = assay: Biofilm formation on polystyrene surface and in glass tubes at sub-MIC; details: Xanthomonas citri, read-out: level of biofilm formation, % of control
Experimental: A static biofilm formation assay in 96-well polystyrene plates coupled with CV staining was performed as previously reported with modifications (Li and Wang, 2011). Briefly, a 96-well polystyrene plate (Nunclon surface, Nuncbrand, Denmark) was prepared with 170 μL NB plus 1.0% glucose per well. Aliquots of 20 μL each of the different concentrations of the tested compound were pipetted into eight wells containing 170 μL of NB plus 1.0% glucose. To each of these wells was added 10 μL of the standardized overnight Xac 306 culture (OD600=1.0). Control wells contained NB plus 1.0% glucose and SDW or 0.1% DMSO as a sterility control, or standardized overnight Xac 306 culture as a growth control. […] After incubation, the planktonic growth was measured at OD600. To quantify the amount of biofilms formed on the surfaces of the wells, the culture was removed from the wells. […] The eluted CV was 2-fold diluted in double distilled water and the absorbance at 590 nm was measured. […]
To gain further evidence of the effect of selected compounds on biofilm formation, biofilm formation in glass tubes and on leaf surfaces was examined as described previously (Li and Wang, 2012). […] The stain remaining in cells on glass tubes was dissolved in 95% ethanol and quantified by measuring the optical density at 590 nm. […]

| SMILES | biofilm formation on citrus leaf surfaces [1] | dose dependence of Xac306 biofilm decrease (Xac306 biofilm formation [2]) | decrease in biofilm mass (Xac306 biofilm formation [2]) | effect on planktonic cell density (Xac306 biofilm formation [2]) | susceptibility of biofilms to CuSO4 relative to untreated control (Xac 306 biofilm cells) | cell viability of Xac biofilms exposed to CuSO4 (Xac 306 biofilm cells) | viable cells in biofilms (Xac 306 biofilm cells) | activity at 100 µg/mL (Xac306 biofilm formation [3]; polystyrene surface and glass tubes, 10 mM D-leucine, 100 μg/mL IAN) | activity at 10000 µM (Xac306 biofilm formation [3]) |
| --- | --- | --- | --- | --- | --- | --- | --- | --- | --- |
| N#CCc1c[nH]c2ccccc12 [IAN, 3-indolylacetonitrile] | declined biofilm formation | decreased Xac306 biofilm in a dose-dependent manner | 65% | does not significantly decrease planktonic cell density | about 10 times | significantly reduced | 4.3×10^6 CFU/mL | 60% |  |
| CC(C)C[C@@H](N)C(=O)O [D-leucine] | declined biofilm formation | decreased Xac306 biofilm in a dose-dependent manner | 58% | does not significantly decrease planktonic cell density | about 10 times | significantly reduced | 1.1×10^6 CFU/mL |  | 50% |
